Measurements as given in US7238710B2, “EP4 receptor agonist, compositions and methods thereof” (Merck Frosst Canada, Ltd., priority 2003, dated 2007).
Entries after “also recorded” stand apart in the source; their conditions may differ.

How the values were obtained:
bone marrow cells = assay: In situ hybridization of EP4 mRNA in bone tissue; format: in vivo, rat; conditions: rats, single anabolic dose
Protocol: (§1) For mRNA localization experiments, 5-week old Sprague-Dawley rats (Charles River) are euthanized by CO2, their tibiae and calvariae are excised, cleaned of soft tissues and frozen immediately in liquid nitrogen. For EP4 regulation experiments, 6-week old rats are given a single injection of either vehicle (7% ethanol in sterile water) or an anabolic dose of PGE2 (Cayman Chemical, Ann Arbor, Mich.), 3-6 mg/kg in the same vehicle) intraperitoneally. Animals are euthanized at several time points post-injection and their tibiae and calvariae, as well as samples from lung and kidney tissues are frozen in liquid nitrogen.
Frozen tibiae are sectioned coronally at […] thickness and sections are mounted on charged slides (Probe On Plus, Fisher Scientific, Springfield, N.J.) and are kept at −70° C. until hybridization. cRNA probes are labeled with ^35S-UTPgS (ICN, Costa Mesa, Calif.) using a Riboprobe II kit (Promega Madison, Wis.). Hybridization is performed overnight at 50° C. […]
In situ hybridization is used in order to localize cells expressing EP4 in bone. In control experiment (vehicle-injected) rats, low expression of EP4 is detected in bone marrow cells. […]

TRAB-11 cells = assay: Intracellular cAMP in TRAB-11 cells; format: cell-based, rat
Protocol: (§2) RCT-1 and RCT-3 are clonal cell lines immortalized by SV-40 large T antigen from cells released from fetal rat calvair by a cmbination collagenase/hyaluronidase digestion. RCT-1 cells, derived from cells released during the first 10 minutes of digestion (fraction I), are cultured in RPMI 1640 medium (BRL) with 10% fetal bovine serum and 0.4 mg/ml G418 (BRL). These cells differentiate and express osteoblastic features upon retinoic acid treatment. RCT-3 cells, immortalized from osteoblast-enriched fraction III cells, are cultured in F-12 medium (BRL) with 5% Fetal bovine serum and 0.4 mg/ml G418. TRAB-11 cells are also immortalized by SV40 large T antigen from adult rat tibia and are cultured in RPMI 1640 medium with 10% FBS and 0.4 mg/ml G418. ROS 17/2.8 rat osteosarcoma cells are cultured in F-12 containing 5% FBS. Osteoblast-enriched (fraction III) primary fetal rat calvaria cells are obtained by collagenase/hyaluronidase digestion of calvariae of 19 day-old rat fetuses. See Rodan et al., Growth stimulation of rat calvaria osteoblastic cells by acidic FGF, Endocrinology, 121, 1919-1923 (1987), which is incorporated by reference herein in its entirety. Cells are released during 30-50 minutes digestion (fraction III) and are cultured in F-12 medium containing 5% FBS. […]

RCT-3 cells [1] = assay: EP4 mRNA expression (Northern blot) in RCT-3 cells; format: cell-based, rat
Protocol: as §2

RP-1 periosteal cells = assay: EP4 and EP2 mRNA expression (Northern blot) in RP-1 periosteal cells; format: cell-based, rat; conditions: RP-1 cells
Protocol: RP-1 periosteal cells are spontaneously immortalized from primary cultures of periosteal cells from tibae of 4-week old Sprague-Dawley rats and are cultured in DMEM (BRL, Gaithersburg, Md.) with 10% fetal bovine serum (JRH Biosciences, Lenexa, Kans.).
(§3) Total RNA is extracted from the tibial metaphysis or diaphysis and calvaria using a guanidinium isothiocyanate-phenol-chloroform method after pulverizing frozen bone samples by a tissue homogenizer. See P. Chomczynski et al., Single-step method of RNA isolation by acid guanidium thiocyanate-phenol-chloroform extraction., Analyt Biochem, 162, 156-159 (1987), which is incorporated by reference herein in its entirety. RNA samples ([…]) are separated on 0.9% agarose/formaldehyde gels and transferred onto nylon membranes (Boehringer Mannheim, Germany). Membranes are prehybridized in Hybrisol I (Oncor, Gaithersburg, Md.) and 0.5 mg/ml sonicated salmon sperm DNA (Boehringer) at 42° C. for 3 hours and are hybridized at 42° C. with rat EP2 and mouse EP4 cDNA probes labeled with [^32P]dCTP (Amersham, Buckinghamshire, UK) by random priming using the rediprime kit (Amersham). After hybridization, membranes are washed 4 times in 2×SSC+0.1% SDS at room temperature for a total of 1 hour and once with 0.2×SSC+0.1% SDS at 55° C. for 1 hour and then exposed to Kodak XAR 2 film at −70° C. using intensifying screens. After developing the films, bound probes are removed twice with 0.1% SDS at 80° C. and membranes are hybridized with a human GAPDH (Glyceraldehyde 3-Phosphate Dehydrogenase) cDNA probe (purchased from Clontech, Palo Alto, Calif.) for loading control.
PGE2 enhances its own production via upregulation of cyclooxygenase 2 expression in osteoblasts and in bone tissue thus autoamplifying its own effects. PGE2 also increases the levels of EP4 mRNA. RP-1 cells are immortalized from a primary culture of adult rat tibia periosteum is examined. These cells express osteoblast phenotypic markers upon confluence and form mineralized bone matrix when implanted in nude mice. […]

RCT-3 cells [2] = assay: Intracellular cAMP in RCT-3 cells; format: cell-based, rat
Protocol: as §2

[3] = tested on: ROS 17/2.8 rat osteosarcoma cells; assay: Intracellular cAMP in ROS 17/2.8 cells; format: cell-based
Protocol: as §2

[4] = tested on: bone tissue (tibia, calvaria); assay: EP4 and EP2 mRNA levels in vivo in bone tissue (Northern blot); set-up: species or system rat
Protocol: as §1
as §3, with “control. […]” for “control.”

[5] = five-week-old male rats, injected 3-6 mg/Kg

CCCCC[C@H](O)/C=C/[C@H]1[C@H](O)CC(=O)[C@@H]1C/C=C\CCCC(=O)O [PGE2]
expression of EP4 in bone marrow cells (bone marrow cells): increased | effect on intracellular cAMP (TRAB-11 cells): markedly induced | EP4 mRNA levels (RCT-3 cells [1]): no effect | EP2 mRNA (RP-1 periosteal cells): not expressed; also recorded: does not induce | EP4 mRNA levels (RP-1 periosteal cells; 10^-6 M): rapidly increases | time of peak EP4 mRNA levels after treatment (RP-1 periosteal cells; 10^-6 M): 2 h | effect on intracellular cAMP (RCT-3 cells [2]): markedly induced | effect on intracellular cAMP [3]: no effect | EP4 mRNA levels in the tibial diaphysis [4, 5]: rapidly increased | time of peak EP4 mRNA levels in the tibial diaphysis after injection [4, 5]: 2 h | EP2 mRNA in bone tissue ([4]; rats): does not induce
